For series [1], the system named is spontaneous defecation in mice. Nature of the series: Spontaneous defecation in mice (total stool weight). To be noted: ddy mice. The class given is in vivo, mouse. As for the experimental part: (§1) Ramosetron hydrochloride, polycarbophil calcium (Astellas Pharma, Inc.) and 5-HT creatinine sulfate (Wako Pure Chemical Industries Ltd.) were used. Ramosetron was dissolved and diluted with distilled water. Polycarbophil was prepared by decalcification of polycarbophil calcium according to a reported method (Yamada et al., Iyakuhin Kenkyu 1997; 28: 23-32), and suspended and diluted with distilled water. In this experiment, ramosetron was used and expressed as its hydrochloride form. All the test substances were orally administered in a dose of 12 mL/kg. In combined administration of ramosetron and polycarbophil, a mixed solution of the two drugs was prepared and this was orally administered.
In this experiment, male ddy mice (Nippon SLC, 5-week age) were used. Spontaneous defecation was measured individually in separate cages with a wire flooring under free drinking and free feeding condition. […]
The effect of single administration of ramosetron or polycarbophil alone was investigated with the following group composition, and the total stool weight in 2 hours after administration of each test substance was measured (n=10 in every group): Distilled water administration group (control group); ramosetron administration group (10, 30 and 100 μg/kg); polycarbophil administration group (100, 300 and 1,000 mg/kg). […]
All the results were statistically analyzed using Statistical Analysis System ver. […]

The subject of series [2] is 5-HT induced diarrhea in mice. Nature of the series: 5-HT induced diarrhea in mice. The class given is in vivo, mouse. As for the experimental part: as §1
Each test substance was orally administered to male ICR mice (9-week age, Clea Japan, Inc.), and after 2 hours, 5-HT (3 mg/kg) was intraperitoneally administered (Miyata et al., J. Pharmacol. Exp. Ther. 1992; 261: 297-303). The mice were put individually in separate cages, and the condition of the stool excreted within 3 hours after the 5-HT administration was observed. The occurrence of diarrhea was defined in case where the excreted stool condition was loose stool (wet pasty stool) or watery stool (amorphous muddy stool). […]
All the results were statistically analyzed using Statistical Analysis System ver. […] In this experiment, all the data were expressed as two significant figures. In the investigation using the diarrheal models, the incidence of diarrhea was calculated in each group, then the significance was evaluated according to the Fisher's exact test, and if desired, the significance level was corrected according to the Bonferroni's method for consideration of multiplicity (the case of P<0.05 or P<0.05/3 was given significance). In the experiments of spontaneous defecation, the mean value of total stool weight±SEM was calculated in every group, and the significance was evaluated according to Student's t-test (between two groups) or Dunnett's multiple comparison test (between multiple groups) (the case of P<0.05 was given significance).

Series [3] has as its system restraint stress induced diarrhea in rats. Nature of the series: Restraint stress induced diarrhea in rats. The class given is in vivo, rat. As for the experimental part:
Ramosetron hydrochloride, polycarbophil calcium (Astellas Pharma, Inc.) and 5-HT creatinine sulfate (Wako Pure Chemical Industries Ltd.) were used. Ramosetron was dissolved and diluted with distilled water. Polycarbophil was prepared by decalcification of polycarbophil calcium according to a reported method (Yamada et al., Iyakuhin Kenkyu 1997; 28: 23-32), and suspended and diluted with distilled water. In this experiment, ramosetron was used and expressed as its hydrochloride form. All the test substances were orally administered in a dose of 12 mL/kg. In combined administration of ramosetron and polycarbophil, a mixed solution of the two drugs was prepared and this was orally administered. Male Wistar rats (13 to 14-week age, Japan SLC Inc.) that had been fasted overnight were stressed by confinement in a restraint stress cage (KN-468, Natsume Seisakusho Co., Ltd.) (Hirata et al., Neurogastroenterol. Motil. 2008; 20: 557-565). The condition of the stool excreted within 3 hours after the initiation of the restraint stress was observed, and the occurrence of diarrhea was defined in case where the excreted stool condition was wet, amorphous and muddy stool. […] All the results were statistically analyzed using Statistical Analysis System ver. […] In this experiment, all the data were expressed as two significant figures. In the investigation using the diarrheal models, the incidence of diarrhea was calculated in each group, then the significance was evaluated according to the Fisher's exact test, and if desired, the significance level was corrected according to the Bonferroni's method for consideration of multiplicity (the case of P<0.05 or P<0.05/3 was given significance). In the experiments of spontaneous defecation, the mean value of total stool weight±SEM was calculated in every group, and the significance was evaluated according to Student's t-test (between two groups) or Dunnett's multiple comparison test (between multiple groups) (the case of P<0.05 was given significance).

One compound from US20110158930A1, “METHOD FOR TREATMENT OF IRRITABLE BOWEL SYNDROME” (ASTELLAS PHARMA INC., priority 2008, published 2011) can be followed below.

The structures appear in SMILES notation.

Take `Cn1cc(C(=O)[C@@H]2CCc3nc[nH]c3C2)c2ccccc21` [ramosetron, (−)-(R)-5-[(1-methyl-1H-indol-3-yl)carbonyl]-4,5,6,7-tetrahydro-1H-benzimidazole]: in series [1] (ramosetron 100 μg/kg p.o. single administration alone, n=10, Dunnett's test), the “total stool weight in 2 hours vs distilled water group” value is “significant reduction in the total stool weight”. In addition, the “effect on spontaneous defecation (total stool weight in 2 hours)” value in series [1] (ramosetron 10 to 100 μg/kg p.o. single administration alone, n=10) was “dose-dependently inhibited spontaneous defecation”. In addition, the incidence of diarrhea in series [2] (ramosetron 30 μg/kg p.o. alone, 2 hours before 5-HT 3 mg/kg i.p., stool within 3 hours, ICR mice, n=24) is reported as 58%; in series [3] (ramosetron 0.3 μg/kg p.o. alone, 4 hours before restraint stress, stool within 3 hours, Wistar rats, n=24) it was 46%. Further, the “effect on 5-HT induced diarrhea” value in series [2] (ramosetron 10 to 100 μg/kg p.o. alone, n=12) is on record as “dose-dependently inhibited”. Further, the “significance of inhibition of 5-HT induced diarrhea vs distilled water” value in series [2] (ramosetron 30 and 100 μg/kg p.o. alone, n=12, Fisher's exact test) is given as “significant inhibitory effect”. In series [3] (ramosetron 0.1 to 1 μg/kg p.o. alone, n=12), the “effect on restraint stress induced diarrhea” value is given as “dose-dependently inhibited”. In series [3] (ramosetron 0.3 and 1 μg/kg p.o. alone, n=12, Fisher's exact test), the “significance of inhibition of restraint stress induced diarrhea vs distilled water” value was “significant inhibitory effect”.
